# Measurements as given in US4622430A (priority 1982, dated 1986).
# Like-named read-outs stand apart in the source and are kept apart here.
# What was measured:
# [1] = system: reserpine-induced catalepsy; assay: Antagonism of reserpine-induced catalepsy in the mouse; format: in vivo, Male CD-1 mice; conditions: 0.75 h, read-out: ED50 (dose causing a reduction of the catalepsy score to 50% of the control group score), oral, reserpine 5 mg/kg i.p. 4 h before, scored 45 min after compound
# [2] = Irwin dose-range study/acute toxicity in the mouse; set-up: species or system Male CD-1 mice; conditions: in vivo; for selectivity ratio: LD50 acute oral toxicity / ED50 reserpine catalepsy, read-out: Therapeutic index (LD50/ED50); for LD50 at 168 h: oral, 7 days observation, method of Horn
# Description: Irwin Dose-Range Study/Acute Toxicity in the Mouse
# The animals were also observed daily for seven days post-dose and any mortalities noted. LD50 values were estimated using the method of Horn (Biometrics, 12, 311 (1956)).
# [3] = system: oxotremorine-induced tremor and salivation; assay: Anti-oxotremorine test in the mouse; conditions: 0-3 scale; for Mean tremor score (± s.e.): vehicle 2,6-2,9; for Mean salivation score (± s.e.): vehicle 2,7-2,9
# [4] = system: CVS strain of rabies virus; format: in vivo, in Swiss-Webster mice
# [5] = 10 mg/kg oral, 10 min post-oxotremorine
# [6] = 100 mg/kg oral, 30 min post-oxotremorine
smiles,measurement,setting,value
"NC1C2C3CC4C5CC(C1C53)C42 (stereo not shown) [Compound 11, 4-amino-(D3)-trishomocubane]",ED50,[1],139 mg/kg
same,selectivity ratio,[2],7.2
same,LD50 at 168 h,[2],1000 mg/kg
"CC12C3CC4C5CC(C(C53)C1NCc1ccccc1)C42 (stereo not shown) [Compound 16, 4-Benzylamino-3-methyl-(D3)-trishomocubane]",ED50,[1],69.1 mg/kg
same,selectivity ratio,[2],> 14.5
same,LD50 at 168 h,[2],> 1000 mg/kg
same,Mean tremor score (± s.e.),[3]; [5],"1,4 ± 0,2"
same,Mean salivation score (± s.e.),[3]; [5],"1,3 ± 0,2"
"CC12C3CC4C5CC(C(C53)C1NCCc1ccccc1)C42 (stereo not drawn) [Compound 17, 4-(β-phenyl)ethylamino-3-methyl-(D3)-trishomocubane]",Mean tremor score (± s.e.),[3]; [6],"1,4 ± 0,2"
same,Mean salivation score (± s.e.),[3]; [6],"1,0 ± 0,3"
"NC1C2C3CC4C5CC(C42)C1(c1ccccc1)C53 (stereo not shown) [Compound 19, 4-amino-3-phenyl-(D3)-trishomocubane]",ED50,[1],32.2 mg/kg
same,"Survival parameter (sum of days survived by six mice, up to 14 days each)","[4]; i.p. 10 mg/kg, 24 hours post inoculation, control 53 (compound 14), 59 (compound 19)",66
same,"Survival parameter (sum of days survived by six mice, up to 14 days each)","[4]; i.p. 10 mg/kg, 96 hours post inoculation, control 52 (compound 14), 61 (compound 19)",77
same,"Survival parameter (sum of days survived by six mice, up to 14 days each)","[4]; i.p. 21,5 mg/kg, 24 hours post inoculation, control 53 (compound 14), 59 (compound 19)",65
same,"Survival parameter (sum of days survived by six mice, up to 14 days each)","[4]; i.p. 21,5 mg/kg, 96 hours post inoculation, control 52 (compound 14), 61 (compound 19)",71
same,"Survival parameter (sum of days survived by six mice, up to 14 days each)","[4]; i.p. 46,4 mg/kg, 24 hours post inoculation, control 53 (compound 14), 59 (compound 19)",66
same,"Survival parameter (sum of days survived by six mice, up to 14 days each)","[4]; i.p. 46,4 mg/kg, 96 hours post inoculation, control 52 (compound 14), 61 (compound 19)",68
same,selectivity ratio,[2],25.6
same,LD50 at 168 h,[2],825 mg/kg
same,Mean salivation score (± s.e.),"[3]; 30 mg/kg oral, 20 min post-oxotremorine","1,0 ± 0,2"
"CNC1C2C3CC4C5CC(C42)C1(C)C53 (stereo not shown) [Compound 23, 3-methyl-4-methylamino-(D3)-trishomocubane]",Mean salivation score (± s.e.),"[3]; 30 mg/kg oral, 30 min post-oxotremorine","0,8 ± 0,2"
same,Mean tremor score (± s.e.),"[3]; 100 mg/kg oral, 10 min post-oxotremorine","1,2 ± 0,2"
